Patent US5118670A, “Process and composition for increasing brain dopamine release” (Massachusetts Institute of Technology, priority 1988, dated 1992)

System: striatal dopamine release
Experiment: Effect of TRH and tyrosine on striatal dopamine release (in vivo microdialysis)
Design: species or system rats
Description: Groups of 7 male albino rats were implanted with a jugular venous catheter (for administering the drugs and withdrawing blood samples), and a microdialysis probe into the corpus striatum (for sampling fluid in equilibrium with intrasynaptic fluids).
Animals were placed under deep urethane anesthesia for the duration of the experiment. Each animal received 10 micrograms of TRH or a saline placebo, and/or tyrosine at a dose of 20 micrograms per kilogram, or a saline placebo.
Microdialysis samples (23 microliters of artificial cerebrospinal fluid per sample) were then collected at 15 minute intervals for 150 minutes, and rapidly assayed for dopamine, its chief metabolites (DOPAC and HVA), serotonin, and the serotonin metabolite, 5-HIAA.

Row | SMILES | other compounds measured in microdialysate (DOPAC, HVA, serotonin, 5-HIAA) (TRH 10 micrograms alone, anesthetized rats, striatal microdialysis) | increase (from the baseline) in dopamine release (TRH 10 micrograms alone, via jugular venous catheter, urethane-anesthetized male albino rats, corpus striatum microdialysis, after two hours) [%] | effect on dopamine release (higher dose of TRH (50 micrograms) without tyrosine, anesthetized rats, striatal microdialysis) [%] | increase in dopamine release (tyrosine alone, 20 micrograms per kilogram, via jugular venous catheter, anesthetized rats, striatal microdialysis, after two hours)
1 | NC(=O)[C@@H]1CCCN1C(=O)[C@H](Cc1c[nH]cn1)NC(=O)[C@@H]1CCC(=O)N1 [TRH, L-pyroglutamyl-L-histidyl-L-prolineamide] | stable | 190 | 750 | 
2 | N[C@@H](Cc1ccc(O)cc1)C(=O)O [tyrosine] |  |  |  | about 110%
